Test results from patent publication US9617244B2, “Antibacterial quinoline derivatives” (JANSSEN PHARMACEUTICA NV, priority 2012, dated 2017).
Values after ≈ are worked out from the molar mass of the structure shown.

Test system: Mycobacterium smegmatis (ATCC607)
Test: In-vitro anti-bacterial activity against strain M. Smegmatis ATCC607
Type: cell-based
Details: 90% inhibitory concentration for bacterial growth, 48 hours, Alamar Blue fluorescence
Outline: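 Serial five-fold compound dilutions in BSA-supplemented wells, inoculated with ~250 CFU/well in Mueller-Hinton broth, incubated 48 h at 37 °C, 5% CO2. Growth read by Alamar Blue fluorescence (ex 530/em 590 nm); IC90 in μg/ml.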

Row | IC90 MSM 607 [µg/mL] | Structure (SMILES)
1 | 0.90 (≈ 1.58 µM) | COc1nc2ccc(Br)cc2cc1C(c1ccc(Cl)cc1)C1(O)CCNC(c2ccc(F)cc2C)C1 (stereo not shown) [Compound 105]
2 | 2.16 (≈ 4.46 µM) | COc1nc2ccc(SC)cc2cc1C(c1ccccc1)C1(O)CCNC(Cc2ccccc2)C1 (stereo not shown) [Compound 142]
3 | >12.63 | CS(=O)(=O)c1ccc2[nH]c(=O)c(C(c3ccccc3)C3(O)CCNC(Cc4ccccc4)C3)cc2c1 (stereo not shown) [Compound 154]

Same assay, conditions: Mycolicibacterium smegmatis, ATCC607, 48 h, 90% inhibitory concentration for bacterial growth, Alamar Blue fluorescence, read-out: IC90 MSM 607

Row | IC90 [µg/mL] | Structure (SMILES)
4 | 4.57 (≈ 10 µM) | COc1nc2ccc(SC)cc2cc1[C@@H](c1ccc(Cl)cc1)C1(O)CCNCC1(C)C (stereo in doubt) [Compound 62]
5 | 3.48 (≈ 6.31 µM) | COc1nc2ccc(Cl)cc2cc1C(c1ccc(Cl)cc1)C1(O)CCN(C(C)c2ccccc2)C(CO)C1 (stereo not shown) [Compound 9]
6 | 3 (≈ 6.3 µM) | COc1nc2ccc(Br)cc2cc1C(c1ccc(Cl)cc1)C1(O)CCNC(C)C1 (stereo not shown) [Compound 11]
7 | 2.82 (≈ 6.3 µM) | COc1nc2ccc(Cl)cc2cc1C(c1ccc(Cl)cc1)C1(O)CCNC(CO)C1 (stereo not shown) [Compound 12]
8 | 4.77 (≈ 8.91 µM) | COc1nc2ccc(F)cc2cc1C(c1ccc(Cl)cc1)C1(O)CCN(C(C)c2ccccc2)C(CO)C1 (stereo not shown) [Compound 13]
9 | 2.19 (≈ 3.98 µM) | COc1nc2ccc(-c3cccnc3)cc2cc1C(c1cccc(Cl)c1)C1(O)CCNC(Cc2ccccc2)C1 (stereo not shown) [Compound 36]
10 | > 14.3 | COc1nc2ccc(S(C)(=O)=O)cc2cc1C(c1ccc(Cl)cc1)C1(O)CCNCC1Cc1cccc[n+]1[O-] (stereo not shown) [Compound 65]
11 | 5.52 (≈ 10 µM) | CN1CCC(O)(C(c2ccc(Cl)cc2)c2cc3cc(Br)ccc3[nH]c2=O)CC1Cc1ccccc1 (stereo not shown) [Compound 84]
12 | 1.01 (≈ 1.99 µM) | COc1nc2ccc(Cl)cc2cc1C(c1ccc(Cl)cc1)C1(O)CCNC(Cc2ccccc2)C1 (stereo not shown) [Compound 96]
13 | 1.14 (≈ 2 µM) | COc1nc2ccc(Br)cc2cc1C(c1ccc(Cl)cc1)C1(O)CCNC(c2ccc(F)cc2C)C1 (stereo not shown) [Compound 104]
14 | 3 (≈ 6.3 µM) | COc1nc2ccc(Br)cc2cc1C(c1ccc(Cl)cc1)C1(O)CCNC(C)C1 (stereo not shown) [Compound 124]
15 | > 12.6 | CS(=O)(=O)c1ccc2[nH]c(=O)c(C(c3ccccc3)C3(O)CCNC(Cc4ccccc4)C3)cc2c1 (stereo not shown) [Compound 153]

Test system: Staphylococcus aureus (ATCC29213)
Test: In-vitro anti-bacterial activity, microtitre plate assay, IC90 determination (non-mycobacterial strains)
Type: cell-based
Details: 90% inhibitory concentration for bacterial growth, 24 hours, resazurin fluorescence
Outline: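 Inoculum of about 100 TCID50 (10–60 CFU/well) in Mueller-Hinton broth, serial five-fold compound dilutions, 24 h at 37 °C in air. Growth read by resazurin fluorescence (ex 530/em 590 nm); IC90 in μg/ml as 90% growth inhibition.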

Row | IC90 STA B29213 [µg/mL] | Structure (SMILES)
16 | 4.38 (≈ 7.94 µM) | COc1nc2ccc(Br)cc2cc1C(c1ccc(Cl)cc1)C1(O)CCNC(Cc2ccccc2)C1 (stereo not shown) [Compound 71]
17 | 1.60 (≈ 3.15 µM) | COc1nc2ccc(Cl)cc2cc1C(c1ccc(Cl)cc1)C1(O)CCNC(Cc2ccccc2)C1 (stereo not shown) [Compound 96]
18 | 1.80 (≈ 3.16 µM) | COc1nc2ccc(Br)cc2cc1C(c1ccc(Cl)cc1)C1(O)CCNC(c2ccc(F)cc2C)C1 (stereo not shown) [Compound 105]
19 | 3.06 (≈ 6.31 µM) | COc1nc2ccc(SC)cc2cc1C(c1ccccc1)C1(O)CCNC(Cc2ccccc2)C1 (stereo not shown) [Compound 142]
20 | >12.63 | CS(=O)(=O)c1ccc2[nH]c(=O)c(C(c3ccccc3)C3(O)CCNC(Cc4ccccc4)C3)cc2c1 (stereo not shown) [Compound 154]
21 | 3.21 (≈ 6.31 µM) | COc1nc2ccc(Cl)cc2cc1C(c1ccc(Cl)cc1)C1(O)CCNCC1Cc1ccccn1 (stereo not shown) [Compound 438]
22 | 12.77 (≈ 25.1 µM) | COc1nc2ccc(Cl)cc2cc1C(c1ccc(Cl)cc1)C1(O)CCNCC1Cc1ccccn1 (stereo not shown) [Compound 439]
23 | 4.41 (≈ 8.92 µM) | COc1nc2ccc(Cl)cc2cc1C(c1ccc(Cl)cc1)C1(O)CCNCC1c1cccnc1 (stereo not shown) [Compound 443]
24 | 12.42 (≈ 25.1 µM) | COc1nc2ccc(Cl)cc2cc1C(c1ccc(Cl)cc1)C1(O)CCNCC1c1cccnc1 (stereo not shown) [Compound 444]
25 | 3.50 (≈ 7.08 µM) | COc1nc2ccc(Cl)cc2cc1C(c1ccc(Cl)cc1)C1(O)CCNCC1c1cccnc1 (stereo not shown) [Compound 445]

Same assay, conditions: Staphylococcus aureus, ATCC29213, 24 h, 90% inhibitory concentration for bacterial growth, resazurin fluorescence, read-out: IC90 STA B29213

Row | IC90 [µg/mL] | Structure (SMILES)
26 | 5.75 (≈ 12.6 µM) | COc1nc2ccc(SC)cc2cc1[C@@H](c1ccc(Cl)cc1)C1(O)CCNCC1(C)C (stereo in doubt) [Compound 62]
27 | 4.92 (≈ 8.92 µM) | COc1nc2ccc(Cl)cc2cc1C(c1ccc(Cl)cc1)C1(O)CCN(C(C)c2ccccc2)C(CO)C1 (stereo not shown) [Compound 9]
28 | 3 (≈ 6.3 µM) | COc1nc2ccc(Br)cc2cc1C(c1ccc(Cl)cc1)C1(O)CCNC(C)C1 (stereo not shown) [Compound 11]
29 | 7.09 (≈ 15.8 µM) | COc1nc2ccc(Cl)cc2cc1C(c1ccc(Cl)cc1)C1(O)CCNC(CO)C1 (stereo not shown) [Compound 12]
30 | 8.48 (≈ 15.8 µM) | COc1nc2ccc(F)cc2cc1C(c1ccc(Cl)cc1)C1(O)CCN(C(C)c2ccccc2)C(CO)C1 (stereo not shown) [Compound 13]
31 | 3.47 (≈ 6.31 µM) | COc1nc2ccc(-c3cccnc3)cc2cc1C(c1cccc(Cl)c1)C1(O)CCNC(Cc2ccccc2)C1 (stereo not shown) [Compound 36]
32 | > 14.3 | COc1nc2ccc(S(C)(=O)=O)cc2cc1C(c1ccc(Cl)cc1)C1(O)CCNCC1Cc1cccc[n+]1[O-] (stereo not shown) [Compound 65]
33 | 8.52 (≈ 15.8 µM) | O=c1[nH]c2ccc(Br)cc2cc1C(c1ccc(Cl)cc1)C1(O)CCNC(Cc2ccccc2)C1 (stereo not shown) [Compound 81]
34 | 6.95 (≈ 12.6 µM) | CN1CCC(O)(C(c2ccc(Cl)cc2)c2cc3cc(Br)ccc3[nH]c2=O)CC1Cc1ccccc1 (stereo not shown) [Compound 84]
35 | 1.8 (≈ 3.16 µM) | COc1nc2ccc(Br)cc2cc1C(c1ccc(Cl)cc1)C1(O)CCNC(c2ccc(F)cc2C)C1 (stereo not shown) [Compound 104]
36 | 3 (≈ 6.3 µM) | COc1nc2ccc(Br)cc2cc1C(c1ccc(Cl)cc1)C1(O)CCNC(C)C1 (stereo not shown) [Compound 124]
37 | > 12.6 | CS(=O)(=O)c1ccc2[nH]c(=O)c(C(c3ccccc3)C3(O)CCNC(Cc4ccccc4)C3)cc2c1 (stereo not shown) [Compound 153]
38 | 13.4 (≈ 25.1 µM) | COc1nc2ccc(F)cc2cc1C(c1ccc(Cl)cc1)C1(O)CCN(C(C)c2ccccc2)C(CO)C1 (stereo not shown) [Compound 436]

Test system: not given
Test: not given
Details: not given

Row | melting point [°C] | Structure (SMILES)
39 | 212 | COc1nc2ccc(SC)cc2cc1[C@@H](c1ccc(Cl)cc1)C1(O)CCNCC1(C)C (stereo in doubt) [Compound 62]
40 | 182 | COc1nc2ccc(Cl)cc2cc1C(c1ccc(Cl)cc1)C1(O)CCN(C(C)c2ccccc2)C(CO)C1 (stereo not shown) [Compound 9]
41 | 143 | COc1nc2ccc(Br)cc2cc1C(c1ccc(Cl)cc1)C1(O)CCNC(C)C1 (stereo not shown) [Compound 11]
42 | 135 | COc1nc2ccc(Cl)cc2cc1C(c1ccc(Cl)cc1)C1(O)CCNC(CO)C1 (stereo not shown) [Compound 12]
43 | 162 | COc1nc2ccc(F)cc2cc1C(c1ccc(Cl)cc1)C1(O)CCN(C(C)c2ccccc2)C(CO)C1 (stereo not shown) [Compound 13]
44 | 120 | COc1nc2ccc(-c3cccnc3)cc2cc1C(c1cccc(Cl)c1)C1(O)CCNC(Cc2ccccc2)C1 (stereo not shown) [Compound 36]
45 | 240 | COc1nc2ccc(S(C)(=O)=O)cc2cc1C(c1ccc(Cl)cc1)C1(O)CCNCC1Cc1cccc[n+]1[O-] (stereo not shown) [Compound 65]
46 | 138 | COc1nc2ccc(Br)cc2cc1C(c1ccc(Cl)cc1)C1(O)CCNC(Cc2ccccc2)C1 (stereo not shown) [Compound 71]
47 | 233 | O=c1[nH]c2ccc(Br)cc2cc1C(c1ccc(Cl)cc1)C1(O)CCNC(Cc2ccccc2)C1 (stereo not shown) [Compound 81]
48 | 238 | CN1CCC(O)(C(c2ccc(Cl)cc2)c2cc3cc(Br)ccc3[nH]c2=O)CC1Cc1ccccc1 (stereo not shown) [Compound 84]
49 | 114 | COc1nc2ccc(Cl)cc2cc1C(c1ccc(Cl)cc1)C1(O)CCNC(Cc2ccccc2)C1 (stereo not shown) [Compound 96]
50 | 160 | COc1nc2ccc(Br)cc2cc1C(c1ccc(Cl)cc1)C1(O)CCNC(c2ccc(F)cc2C)C1 (stereo not shown) [Compound 104]
51 | 149 | COc1nc2ccc(Br)cc2cc1C(c1ccc(Cl)cc1)C1(O)CCNC(c2ccc(F)cc2C)C1 (stereo not shown) [Compound 105]
52 | 164 | COc1nc2ccc(Br)cc2cc1C(c1ccc(Cl)cc1)C1(O)CCNC(C)C1 (stereo not shown) [Compound 124]
53 | 190 | COc1nc2ccc(SC)cc2cc1C(c1ccccc1)C1(O)CCNC(Cc2ccccc2)C1 (stereo not shown) [Compound 142]
54 | 183 | CS(=O)(=O)c1ccc2[nH]c(=O)c(C(c3ccccc3)C3(O)CCNC(Cc4ccccc4)C3)cc2c1 (stereo not shown) [Compound 153]
55 | 250 | CS(=O)(=O)c1ccc2[nH]c(=O)c(C(c3ccccc3)C3(O)CCNC(Cc4ccccc4)C3)cc2c1 (stereo not shown) [Compound 154]
56 | 135 | COc1nc2ccc(F)cc2cc1C(c1ccc(Cl)cc1)C1(O)CCN(C(C)c2ccccc2)C(CO)C1 (stereo not shown) [Compound 436]
57 | 188 | COc1nc2ccc(Cl)cc2cc1C(c1ccc(Cl)cc1)C1(O)CCNCC1Cc1ccccn1 (stereo not shown) [Compound 438]
58 | 132 | COc1nc2ccc(Cl)cc2cc1C(c1ccc(Cl)cc1)C1(O)CCNCC1Cc1ccccn1 (stereo not shown) [Compound 439]
59 | 156 | COc1nc2ccc(Cl)cc2cc1C(c1ccc(Cl)cc1)C1(O)CCNCC1c1cccnc1 (stereo not shown) [Compound 443]
60 | 172 | COc1nc2ccc(Cl)cc2cc1C(c1ccc(Cl)cc1)C1(O)CCNCC1c1cccnc1 (stereo not shown) [Compound 444]
61 | 154 | COc1nc2ccc(Cl)cc2cc1C(c1ccc(Cl)cc1)C1(O)CCNCC1c1cccnc1 (stereo not shown) [Compound 445]
